Residue numbers refer to the chain shown, from its start. Where two headings read alike, the source gives them in different places.

Usually EC50 stands for the concentration giving half of the maximal effect.

The target of assay [1] is T1, chimeric P2X4(P2X2) receptor c10^R301-Q308 (Homo sapiens, UniProt Q99571, A304N/D302K/DEL301-301/E307T/L303I/N306T/Q308T).
T1 construct: expressed in transfected cells; gene synthesis (Geneart), pLVX-IRES-mCherry (bicistronic, mCherry not fused)
T1 sequence (Q99571 with tags, fused parts or gaps DEL301-301/D302K/L303I/A304N/N306T/E307T/Q308T): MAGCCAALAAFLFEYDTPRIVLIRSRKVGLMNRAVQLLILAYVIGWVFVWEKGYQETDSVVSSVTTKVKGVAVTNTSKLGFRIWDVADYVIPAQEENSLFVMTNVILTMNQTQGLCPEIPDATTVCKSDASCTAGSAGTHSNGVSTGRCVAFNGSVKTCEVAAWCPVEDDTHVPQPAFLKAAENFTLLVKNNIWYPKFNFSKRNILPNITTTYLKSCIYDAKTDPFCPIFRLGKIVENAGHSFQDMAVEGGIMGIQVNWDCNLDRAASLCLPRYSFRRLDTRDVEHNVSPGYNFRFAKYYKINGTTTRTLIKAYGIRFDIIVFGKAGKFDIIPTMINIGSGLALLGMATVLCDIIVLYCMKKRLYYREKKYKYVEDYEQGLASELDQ
Also noted: method as in ref 19 (supplement). As to conditions: read-out: ATP EC50, published value, ref 19 (supplement); cited from earlier work.

The test system of assay [2] is zebrafish P2X4 receptor. Also noted: method as in PMID 19641588, PMID 12127972. As to conditions: cited from earlier work.
Assay [3] concerns the target T2, human P2X4-E307T receptor mutant (Homo sapiens, UniProt Q99571, E307T).
T2 construct: expressed in transfected cells
T2 sequence (Q99571 1-388 E307T): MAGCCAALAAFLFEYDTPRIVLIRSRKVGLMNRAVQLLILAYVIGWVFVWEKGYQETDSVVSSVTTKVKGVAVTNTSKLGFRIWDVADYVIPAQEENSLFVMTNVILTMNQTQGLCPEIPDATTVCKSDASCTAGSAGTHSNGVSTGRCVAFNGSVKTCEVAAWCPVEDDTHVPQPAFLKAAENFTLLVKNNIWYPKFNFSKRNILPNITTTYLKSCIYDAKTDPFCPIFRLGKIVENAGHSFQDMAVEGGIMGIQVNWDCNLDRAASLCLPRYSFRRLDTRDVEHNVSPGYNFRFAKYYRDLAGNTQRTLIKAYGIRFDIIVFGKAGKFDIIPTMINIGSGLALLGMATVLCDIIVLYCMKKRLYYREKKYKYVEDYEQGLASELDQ
Put plainly: ATP-induced calcium influx assay, P2X4-E307T mutant in 1321N1 astrocytoma cells. The following applies: P2X4-E307T. In kind it is cell-based.

Assay [4] deals with chimeric receptor c1^V71-I83. Also noted: method as in PMID 36328074. The following applies: cited from earlier work.
The target in assay [5] is T3, chimeric P2X4(P2X2) receptor c6^N208-S216 (Homo sapiens, UniProt Q99571, I209R/N208D/S216R/T211D/T212G).
T3 sequence (Q99571 1-388 N208D/I209R/T211D/T212G/S216R): T2 sequence (Q99571 1-388 E307T) with N208D, I209R, T211D, T212G, S216R, T307E
Put plainly: cell-based.

In assay [6] the target is chimeric P2X4(P2X2) receptor c2-c5^C116-T186 (Homo sapiens, UniProt Q99571, A122H/A137L/A177Q/A181M/D121V/DEL149-175/E183P/G138D/H140L/INS118S/INS148CVPYYQGPSKTCEVFGWCPVEDGASV/INS179G/K127L/K180T/P120R/P176S/S131D/S136E/S141G/S145R/T123N/T124A/T133V/T139M/V125T/V144L). Put plainly: cell-based.
Assay [7] addresses T1, chimeric P2X4(P2X2) receptor c10^R301-Q308. Kind of assay: ATP-induced calcium influx assay, chimeric receptor c10 in 1321N1 astrocytoma cells. In kind it is cell-based.
Assay [8] concerns the target P2X4-D302I receptor mutant (Homo sapiens, UniProt Q99571, D302I). Put plainly: cell-based.
Assay [9] addresses chimeric P2X4(P2X2) receptor c7^I218-D224 (Homo sapiens, UniProt Q99571, A221E/D220H/I218T/K222A/T223S/Y219F). Put plainly: cell-based.
Assay [10] has as its target T3, chimeric P2X4(P2X2) receptor c6^N208-S216. Also noted: expressed in transfected cells; gene synthesis (Geneart), pLVX-IRES-mCherry; method as in ref 19 (supplement). As to conditions: read-out: ATP EC50, published value, ref 19 (supplement); cited from earlier work.
Assay [11] addresses T4, hP2X4-E307T receptor mutant (Homo sapiens, UniProt Q99571, E307T).
T4 construct: host or cells: Xenopus laevis oocytes injected with cRNA (pNKS2 vector)
T4 sequence (Q99571 1-388 E307T): T2 sequence (Q99571 1-388 E307T)
Put plainly: Two-electrode voltage clamp (TEVC), P2X4-E307T in Xenopus laevis oocytes. Type of assay: cell-based. The following applies: TEVC at -60 mV, Xenopus oocytes, P2X4-E307T. (Two-electrode voltage clamp is typically applied to oocytes expressing channels or transporters.)

Chain of P2X4-D302I receptor mutant (Q99571 whole entry D302I): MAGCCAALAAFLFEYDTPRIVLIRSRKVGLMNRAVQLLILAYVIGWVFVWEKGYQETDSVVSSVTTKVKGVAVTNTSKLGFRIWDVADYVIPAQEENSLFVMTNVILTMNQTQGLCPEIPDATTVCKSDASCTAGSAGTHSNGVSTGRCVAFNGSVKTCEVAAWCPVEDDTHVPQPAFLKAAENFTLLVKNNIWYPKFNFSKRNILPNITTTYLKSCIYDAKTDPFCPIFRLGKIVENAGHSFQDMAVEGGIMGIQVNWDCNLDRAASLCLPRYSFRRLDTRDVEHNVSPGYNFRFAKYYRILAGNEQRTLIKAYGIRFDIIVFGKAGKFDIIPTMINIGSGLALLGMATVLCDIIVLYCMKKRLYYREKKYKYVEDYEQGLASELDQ
Chain of chimeric P2X4(P2X2) receptor c2-c5^C116-T186 (Q99571 with tags, fused parts or gaps isoform Q99571-3 with the stated changes): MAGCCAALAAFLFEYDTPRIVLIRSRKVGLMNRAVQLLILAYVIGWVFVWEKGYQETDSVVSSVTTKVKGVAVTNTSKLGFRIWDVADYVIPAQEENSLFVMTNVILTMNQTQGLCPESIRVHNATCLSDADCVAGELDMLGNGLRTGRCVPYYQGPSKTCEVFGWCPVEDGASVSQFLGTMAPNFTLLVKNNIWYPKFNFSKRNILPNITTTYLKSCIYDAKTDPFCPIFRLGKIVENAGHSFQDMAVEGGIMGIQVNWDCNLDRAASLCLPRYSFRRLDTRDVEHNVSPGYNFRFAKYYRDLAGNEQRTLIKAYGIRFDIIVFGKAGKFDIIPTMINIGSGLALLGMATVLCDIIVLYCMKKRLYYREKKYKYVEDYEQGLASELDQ
Chain of chimeric P2X4(P2X2) receptor c7^I218-D224 (Q99571 whole entry I218T/Y219F/D220H/A221E/K222A/T223S): as the sequence (Q99571 whole entry D302I) above, with I218T, Y219F, D220H, A221E, K222A, T223S, I302D counted along it

In the case of `Nc1ncnc2c1ncn2[C@@H]1O[C@H](COP(=O)(O)OP(=O)(O)OP(=O)(O)O)[C@@H](O)[C@H]1O` [ATP, Adenosine 5′-triphosphate], the EC50 in assay [1] is 862 nM; in assay [3], 921 nM; in assay [5] it was 589 nM; in assay [6], 2290 nM; in assay [7] it was 912 nM; in [8] (ATP EC50, P2X4-D302I) it was 1600 nM. For the same compound, the concentration giving a half-maximal response (EC50) in assay [8] (ATP pEC50 ± SEM, P2X4-D302I) was 1410 nM; in assay [9], 1200 nM; in [10], 572 nM; in [11], about 10000 nM. Also, in [2], the “Potency of ATP at the zebrafish P2X4 receptor lower than at the human P2X4 receptor” value was “about 700 fold”. For the same compound, the “Maximal effect of ATP compared to that of the human wt P2X4 receptor” value in assay [4] is 4%. In addition, the “EC50 of ATP at c10 higher than at wt P2X4” value in assay [7] (calcium influx) came out at 2.4 fold.

These data come from paper PMC12678798, “Discovery of an allosteric binding site for anthraquinones at the human P2X4 receptor” (Nature Communications, 2025).
